In patent US7745402B2, “Method of treating pancreatitis” (Lundbeck Inc., priority 2005, dated 2010):

System: HO-1^+ pancreatic macrophages
Assay: Staining of pancreatic macrophages (HO-1, F4/80) after hemin
Format: in vivo, mice
Settings: intraperitoneal hemin
Experimental: FIG. 3: Hemin increases HO-1^+ pancreatic macrophages in association with MCP-1 and MIP-1α induction. (A) Pancreas from CDD-fed mice was triple-stained using antibodies to HO-1 (a), the macrophage marker F4/80 (b), and the granulocyte marker Gr-1 (c). Scale bar in panel d=20 μM. (B) Mice were treated intraperitoneally with hemin (H) or vehicle (V) once (H×1) or 3×(H×3, V×3) during a one week period, followed by feeding with CDD or regular chow for 3 d. Pancreata were collected followed by staining and counting F4/80^+ macrophages in 10 randomly selected high power fields (HPF). The mean±SD (3 mice/group) and p-value for the indicated comparisons are shown. […]
Animal procedures. […] Immunofluorescence staining was performed as described (29) and images were analyzed using confocal microscopy. Total tissue lysates were prepared by homogenization in Laemmli sample buffer and analyzed by SDS-PAGE followed by transfer to membranes for blotting and protein visualization by enhanced chemiluminescence. Trypsin activity was determined using a fluorimetric assay and the substrate Boc-Gln-Ala-Arg-MCA (Peptides International Inc.; Louisville, Ky.), and comparison to a standard curve generated with purified trypsin as described. […] Lung injury after caerulein administration was assessed as previously described, based on neutrophilic infiltration, pulmonary edema, alveolar distension and collapse. […]

Substance: Hemin
- HO-1^+ pancreatic macrophages: increases
